The test system of one assay is KATO-III cell line. Nature of the assay: 72-hour MTT experiment in KATO-III gastric cancer cell line. Format: cell-based. The following applies: Homo sapiens, FGFR2-amplified cell line.
A further assay deals with SNU-5 cells. Nature of the assay: 72-hour MTT experiment in SNU-5 gastric cancer cell line. The following applies: Homo sapiens, SNU-5, MET-amplified cell line. Format: cell-based.

As usually defined, the IC50 is the concentration that gives 50% inhibition. For `C[C@@H](Oc1cc(-c2cnn(C3CCNCC3)c2)cnc1N)c1c(Cl)ccc(F)c1Cl` [crizotinib], the 50% inhibitory concentration (IC50) was determined as 22.6 nM in the assay on KATO-III cell line and 17.5 nM in the assay on SNU-5 cells.
Take `COCc1c(-c2cc3cc(C)cc(OC)c3s2)c2c(N)ncnn2c1CN1CCNC(=O)C1` [rogaratinib]: the IC50 in the assay on KATO-III cell line is 31 nM; in the assay on SNU-5 cells, above 40 nM.

(Values after patent US20240085426A1, “TRIPLE QUADRUPOLE-BASED MULTIPLE REACTION MONITORING FOR CLINICAL THERAPEUTIC RESPONSE PREDICTION IN CANCER” (NATIONAL CANCER CENTER, priority 2020, published 2024).)
